Test results from patent US20230102554A1 (GB002, INC., priority 2019, published 2023).

Columns and labels:
[1] = molecular target: T1, Human PDGFRβ, cytoplasmic domain (GST-PDGFRβ) (Homo sapiens, UniProt P09619); assay: Human PDGFRβ biochemical inhibition assay (off-chip Mobility Shift Assay)
T1 construct: made in house
How it was run: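 GST-tagged cytoplasmic domain (aa 557-1106) from baculovirus was incubated 1 h at room temperature with compound, CSKtide, ATP at Km and Mg²⁺ in HEPES buffer, pH 7.5. Phosphorylated and unphosphorylated peptide were separated by off-chip mobility shift, and the product ratio P/(P+S) gave percent inhibition.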

[2] = molecular target: T2, Human PDGFRα, cytoplasmic domain (GST-PDGFRα) (Homo sapiens, UniProt P16234); assay: Human PDGFRα biochemical inhibition assay (off-chip Mobility Shift Assay)
T2 construct: made in house
T2 sequence (P16234 550-1089 T674I): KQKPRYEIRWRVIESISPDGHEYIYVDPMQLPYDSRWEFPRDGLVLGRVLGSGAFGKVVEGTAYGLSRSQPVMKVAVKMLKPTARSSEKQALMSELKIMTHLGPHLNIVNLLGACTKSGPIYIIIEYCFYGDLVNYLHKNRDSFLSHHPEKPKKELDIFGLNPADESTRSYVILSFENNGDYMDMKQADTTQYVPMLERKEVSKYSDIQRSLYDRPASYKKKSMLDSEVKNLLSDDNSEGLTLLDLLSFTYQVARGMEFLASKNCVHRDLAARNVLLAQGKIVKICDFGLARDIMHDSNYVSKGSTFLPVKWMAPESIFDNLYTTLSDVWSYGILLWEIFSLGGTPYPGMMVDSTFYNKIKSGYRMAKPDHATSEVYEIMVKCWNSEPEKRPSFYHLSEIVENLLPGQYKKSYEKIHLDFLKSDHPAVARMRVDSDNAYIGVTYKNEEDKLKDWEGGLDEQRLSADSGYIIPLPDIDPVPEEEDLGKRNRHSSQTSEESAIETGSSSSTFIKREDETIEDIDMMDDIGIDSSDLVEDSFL

T1 sequence (P09619 with tags, fused parts or gaps): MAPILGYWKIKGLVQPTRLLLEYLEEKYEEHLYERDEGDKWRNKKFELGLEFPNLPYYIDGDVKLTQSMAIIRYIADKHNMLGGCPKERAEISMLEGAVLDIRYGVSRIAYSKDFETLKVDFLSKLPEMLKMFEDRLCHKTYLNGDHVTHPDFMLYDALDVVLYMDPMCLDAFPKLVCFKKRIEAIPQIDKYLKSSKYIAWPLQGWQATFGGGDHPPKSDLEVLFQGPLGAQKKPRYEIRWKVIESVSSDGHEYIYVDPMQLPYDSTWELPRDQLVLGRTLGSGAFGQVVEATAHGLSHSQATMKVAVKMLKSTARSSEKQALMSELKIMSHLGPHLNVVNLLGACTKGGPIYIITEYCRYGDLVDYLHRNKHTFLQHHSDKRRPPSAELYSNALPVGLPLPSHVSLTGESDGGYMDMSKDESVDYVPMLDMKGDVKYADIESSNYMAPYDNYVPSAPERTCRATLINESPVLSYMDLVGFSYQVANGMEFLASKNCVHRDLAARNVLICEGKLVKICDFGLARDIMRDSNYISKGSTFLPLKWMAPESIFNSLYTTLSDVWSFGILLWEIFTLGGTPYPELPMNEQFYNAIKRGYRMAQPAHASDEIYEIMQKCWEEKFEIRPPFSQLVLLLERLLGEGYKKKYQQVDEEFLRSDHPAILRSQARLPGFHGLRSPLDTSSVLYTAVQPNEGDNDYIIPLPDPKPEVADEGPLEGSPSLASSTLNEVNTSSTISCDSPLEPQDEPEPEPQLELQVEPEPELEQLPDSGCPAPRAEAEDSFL

SMILES | IC50 [1] [µM] | IC50 [2] [µM]
CCn1cc2ncc(N[C@@H](C)c3cc(NC(=O)Cc4ccc(C(C)(C)O)cn4)ccc3C)nc2n1 [Compound 705, (S)-N-(3-(1-((2-ethyl-2H-pyrazolo[3,4-b]pyrazin-6-yl)amino)ethyl)-4-methylphenyl)-2-(5-(2-hydroxypropan-2-yl)pyridin-2-yl)acetamide] | ≥ 1 | ≥ 1
CCn1cc2ncc(N[C@@H](C)c3cccc(NC(=O)c4ccc(CN5CCC6(CC5)COC6)c(C)c4)c3)nc2n1 [Compound 480, (S)-4-((2-oxa-7-azaspiro[3.5]nonan-7-yl)methyl)-N-(3-(1-((2-ethyl-2H-pyrazolo[3,4-b]pyrazin-6-yl)amino)ethyl)phenyl)-3-methylbenzamide] | 0.3 to 1 | < 0.3
CCn1cc2ncc(N[C@@H](C)c3cccc(NC(=O)c4cnc(OC(C)C)c(Cl)c4)c3)nc2n1 [Compound 354, (S)-5-chloro-N-(3-(1-((2-ethyl-2H-pyrazolo[3,4-b]pyrazin-6-yl)amino)ethyl)phenyl)-6-isopropoxynicotinamide] | < 0.3 | < 0.3
Cc1cncc(C(=O)Nc2cccc([C@H](C)Nc3cnc4[nH]cc(-c5cccnc5)c4n3)c2)c1 [Compound 591, (S)-5-methyl-N-(3-(1-((7-(pyridin-3-yl)-5H-pyrrolo[2,3-b]pyrazin-2-yl)amino)ethyl)phenyl)nicotinamide] | < 0.3 | < 0.3
CCn1cc2ncc(N[C@@H](C)c3cc(NC(=O)c4ccc(N5CCN(C)CC5)c(Cl)c4)ccc3F)nc2n1 [Compound 413, (S)-3-chloro-N-(3-(1-((2-ethyl-2H-pyrazolo[3,4-b]pyrazin-6-yl)amino)ethyl)-4-fluorophenyl)-4-(4-methylpiperazin-1-yl) benzamide] | < 0.3 | < 0.3
Cc1cncc(C(=O)Nc2cccc([C@H](C)Nc3cnn4ccc(-c5cnn(C)c5)cc34)c2)c1 [Compound 745, (S)-5-methyl-N-(3-(1-((5-(1-methyl-1H-pyrazol-4-yl)pyrazolo[1,5-a]pyridin-3-yl)amino)ethyl)phenyl) nicotinamide] | ≥ 1 | ≥ 1
CCn1cc2ncc(N[C@@H](C)c3cc(NC(=O)c4ccc(NC)nc4)ccc3F)nc2n1 [Compound 337, (S)-N-(3-(1-((2-ethyl-2H-pyrazolo[3,4-b]pyrazin-6-yl)amino)ethyl)-4-fluorophenyl)-6-(methylamino)nicotinamide] | < 0.3 | < 0.3
CCn1cc2ncc(N[C@@H](C)c3cc(NC(=O)Cc4cc(C)ccn4)ccc3C)nc2n1 [Compound 679, (S)-N-(3-(1-((2-ethyl-2H-pyrazolo[3,4-b]pyrazin-6-yl)amino)ethyl)-4-methylphenyl)-2-(4-methylpyridin-2-yl) acetamide] | < 0.3 | < 0.3
C=Cc1ncc(C(=O)Nc2cccc([C@H](C)Nc3cnc4cnn(C)c4n3)c2)cc1C [Compound 245, (S)-5-methyl-N-(3-(1-((1-methyl-1H-pyrazolo[3,4-b]pyrazin-6-yl)amino)ethyl)phenyl)-6-vinylnicotinamide] | < 0.3 | < 0.3
CCOc1ncc(C(=O)Nc2cccc([C@H](C)Nc3cnc4cn(CC)nc4n3)c2)cc1C [Compound 314, (S)-6-ethoxyN-(3-(1-((2-ethyl-2H-pyrazolo[3,4-b]pyrazin-6-yl)amino)ethyl)phenyl)-5-methylnicotinamide] | < 0.3 | < 0.3
CCn1cc2ncc(N[C@@H](C)c3cccc(NC(=O)c4ccc(Cl)s4)c3)nc2n1 [Compound 293, (S)-5-chloro-N-(3-(1-((2-ethyl-2H-pyrazolo[3,4-b]pyrazin-6-yl)amino)ethyl)phenyl)thiophene-2-carboxamide] | < 0.3 | < 0.3
CCn1cc2ncc(N[C@@H](C)c3cccc(NC(=O)c4cnc(OC(C)C)c(C)c4)c3)nc2n1 [Compound 327, (S)-N-(3-(1-((2-ethyl-2H-pyrazolo[3,4-b]pyrazin-6-yl)amino)ethyl)phenyl)-6-isopropoxy-5-methylnicotinamide] | < 0.3 | < 0.3

The remaining lines, values ahead:

IC50 [1] [µM] | IC50 [2] [µM] | SMILES
≥ 1 | 0.3 to 1 | CCn1cc2ncc(N[C@@H](C)c3cccc(NC(=O)Cc4ccc(C5CC5)cn4)c3)nc2n1 [Compound 682, (S)-2-(5-cyclopropylpyridin-2-yl)-N-(3-(1-((2-ethyl-2H-pyrazolo[3,4-b]pyrazin-6-yl)amino)ethyl)phenyl)acetamide]
< 0.3 | < 0.3 | Cc1c[nH]c2ncc(N[C@@H](C)c3cccc(NC(=O)c4ccc(C(F)(F)F)nc4)c3)nc12 [Compound 557, (S)-N-(3-(1-((7-methyl-5H-pyrrolo[2,3-b]pyrazin-2-yl)amino)ethyl)phenyl)-6-(trifluoromethyl)nicotinamide]
< 0.3 | < 0.3 | C[C@H](Nc1cnc2cnn(C)c2n1)c1cccc(NC(=O)c2cc(C3CC3)on2)c1 [Compound 144, (S)-5-cyclopropyl-N-(3-(1-((1-methyl-1H-pyrazolo[3,4-b]pyrazin-6-yl)amino)ethyl)phenyl)isoxazole-3-carboxamide]
< 0.3 | < 0.3 | C[C@H](Nc1cnc2cnn(C)c2n1)c1cccc(NC(=O)Nc2ccccc2)c1 [Compound 729, (S)-1-(3-(1-((1-methyl-1H-pyrazolo[3,4]pyrazin-6-yl)amino)ethyl)phenyl)-3-phenylurea]
< 0.3 | < 0.3 | Cc1cncc(C(=O)Nc2cccc([C@H](C)Nc3cnc4cnn(-c5cccnc5)c4n3)c2)c1 [Compound 273, (S)-5-methyl-N-(3-(1-((1-(pyridin-3-yl)-1H-pyrazolo[3,4-b]pyrazin-6-yl)amino)ethyl)phenyl)nicotinamide]
0.3 to 1 | < 0.3 | C[C@H](Nc1cnc2cnn(C)c2n1)c1cccc(NC(=O)c2ccn(CC(F)F)n2)c1 [Compound 158, (S)-1-(2,2-difluoroethyl)-N-(3-(1-((1-methyl-1H-pyrazolo[3,4-b]pyrazin-6-yl)amino)ethyl)phenyl)-1H-pyrazole-3-carboxamide]
0.3 to 1 | < 0.3 | CCNc1ncc(C(=O)Nc2cccc([C@H](C)Nc3cnc4cn(CC)nc4n3)c2)s1 [Compound 364, (S)-N-(3-(1-((2-ethyl-2H-pyrazolo[3,4-b]pyrazin-6-yl)amino)ethyl)phenyl)-2-(ethylamino)thiazole-5-carboxamide]
< 0.3 | < 0.3 | CCn1cc2ncc(N[C@@H](C)c3cccc(NC(=O)Cc4cccc(C)c4)c3)nc2n1 [Compound 622, (S)-N-(3-(1-((2-ethyl-2H-pyrazolo[3,4-b]pyrazin-6-yl)amino)ethyl)phenyl)-2-(m-tolyl) acetamide]
0.3 to 1 | < 0.3 | CCn1cc2ncc(N[C@@H](C)c3cccc(NC(=O)Cc4ccccc4F)c3)nc2n1 [Compound 451, (S)-N-(3-(1-((2-ethyl-2H-pyrazolo[3,4-b]pyrazin-6-yl)amino)ethyl)phenyl)-2-(2-fluorophenyl)acetamide]
0.3 to 1 | < 0.3 | Cc1cncc(C(=O)Nc2cccc([C@H](C)Nc3cnc4cnn(C)c4c3)c2)c1 [Compound 89, (S)-5-methyl-N-(3-(1-((1-methyl-1H-pyrazolo[4,3-b]pyridin-6-yl)amino)ethyl)phenyl)nicotinamide]
